In US20080255055A1, “Use of Derivatives of Dipeptides for the Manufacture of a Medicament for the Treamtent of Microbial Infections” (NEOBIOTICS AB, priority 2004, published 2008):
In brackets after ≈: the same amount, converted by molar mass. Non-standard residues stand in square brackets, D forms with d. dPhg = N[C@@H](C(=O)O)c1ccccc1; Phg = N[C@H](C(=O)O)c1ccccc1; code Z = not defined here; Orn = NCCC[C@H](N)C(=O)O; Mpa = O=C(O)CCS

How the values were obtained:
bacteria = assay: Anti-bacterial activity (tables of particularly interesting compounds); format: cell-based; design: key: + indicates that the compound show effects
Streptococcus: group A = assay: Agar well diffusion; conditions: 40 ul of 1 mg/ml in DMSO
L. monocytogenes = assay: Agar well diffusion; conditions: 40 ul of 1 mg/ml in DMSO
[1] = tested on: E. coli and other Gram-negatives; assay: Agar well diffusion; conditions: for antibacterial effect, E. coli and other Gram-negatives: agar well diffusion, 40 ul of 1 mg/ml in DMSO
labial herpes = assay: Topical application to beginning labial herpes outbreak; format: in vivo; conditions: Cp1 in softening cream, 0.2 ml solution (0.1 g/l) on the lip of a person; performed twice
cysteine proteases = assay: Protease inhibitory activity; format: biochemical
[2] = tested on: Staphylococci incl. multi-resistant MRSA; assay: Agar well diffusion; conditions: for antibacterial effect, Staphylococci incl. multi-resistant MRSA: agar well diffusion, 40 ul of 1 mg/ml in DMSO; for growth inhibition of approximately 100 strain of MRSA: clinical isolates, several with additional antibiotic resistance markers
S. aureus = assay: MIC by broth dilution; format: cell-based; conditions: growth media without DMSO, solubility problems; true MIC might be lower
Method: (§1) The in vitro antibacterial activity of drugs is commonly estimated by testing their minimal inhibitory (MIC) and bactericidal (MBC) concentrations.
(§2) MIC/MBC determinations were performed by broth dilution according to established procedures, well known for a person skilled in the art.

poliovirus type 1 = format: cell-based; conditions: GMK AH 1 cells, 1 PFU/cell, 48 hours; Cp1 0.4 mM in 1% DMSO
lethal strept challenge = assay: Protection against lethal strept challenge; format: in vivo; conditions: mouse
Solubility = format: physicochemical
[3] = tested on: α-haemolytic Streptococci; assay: Agar well diffusion; conditions: 40 ul of 1 mg/ml in DMSO
[4] = tested on: Candida albicans ATCC 10231; assay: Antifungal MIC in Sabouraud broth; format: cell-based; conditions: 25° C., 48 h
Method: (§3) The minimal inhibitory concentration (MIC) was determined using a method with Sabouraud broth (Becton Dickinson) and an initial inoculum 10^3-10^4 cfu/ml. Polypropylene 96-well plates (Nunc) were incubated at 25° C. for 48 h (for Candida albicans ATCC 10231) or 7 days (for Aspergillus niger ATCC 16404). The MIC was taken as the lowest drug concentration at which noticeable growth was inhibited. The experiments were performed in duplicate.

[5] = tested on: Aspergillus niger ATCC 16404; assay: Antifungal MIC in Sabouraud broth; format: cell-based; conditions: 25° C., 7 days
Method: as §3

Streptococcus: group G = assay: Agar well diffusion; conditions: 40 ul of 1 mg/ml in DMSO
S. pneumoniae = assay: Agar well diffusion; conditions: 40 ul of 1 mg/ml in DMSO
Streptococcus: group C = assay: Agar well diffusion; conditions: 40 ul of 1 mg/ml in DMSO
[6] = tested on: CNS incl. resistant and multiresistant MRSE; assay: Agar well diffusion; conditions: 40 ul of 1 mg/ml in DMSO
Streptococcus: group B = assay: Agar well diffusion; conditions: 40 ul of 1 mg/ml in DMSO
HSV-1 F = assay: Virus inhibition analysis and plaque counting test in GMK AH 1 cells; format: cell-based, Herpes Simplex Virus; conditions: 10 PFU/cell, 48 hours, Cp1 0.4 mM in 1% DMSO, Acyclovir 1.0 mM
GAS = assay: MIC by broth dilution; format: cell-based, group A Streptococci; conditions: growth media without DMSO, solubility problems; true MIC might be lower
Method: as §1, §2

cyclo([Phg]RLV[Phg]RLV)
Activity Anti-bacterial (bacteria): +

Z-Arg-Leu-Val-Phe-NH2 ({code Z}-RLVF-NH2; reading uncertain; also: printed as Z-Arg-Leu-Val-Phe-NH2)
Activity Anti-bacterial (bacteria): +

Mpa-Phe-Arg-Leu-Val-Phe-Cys-NH2 ([Mpa]FRLVFC-NH2; cysteine pairing not given here)
Activity Anti-bacterial (bacteria): +

cyclo([dY]RLV[dY]RLV)
Activity Anti-bacterial (bacteria): +

cyclo(F[Orn]LVF[Orn]LV)
Activity Anti-bacterial (bacteria): +

CC(C)CC(NC(=O)C(CCCN=C(N)N)NC(=O)OCc1ccccc1)C(=O)N[C@H](CNC(=O)/C=C/c1ccccc1)C(C)C (stereo in doubt) [Cp1, (2S)-2-[(N^α-Benzyloxycarbonyl-arginyl-leucyl)-amino]-1-trans-cinnamoylamino-3-methylbutane]
antibacterial effect, Streptococcus: group A (Streptococcus: group A): +
antibacterial effect, L. monocytogenes (L. monocytogenes): +
activity against gram-negative bacteria [1]: low or no activity
antibacterial effect, E. coli and other Gram-negatives [1]: −
time after which symptoms of beginning labial herpes outbreak was gone (labial herpes): Cp1 was added to a softening cream and 0.2 ml solution (0.1 g/l) was applied to an area of a beginning labial herpes outbreak on the lip of a person. After 3-4 hours the symptoms was gone. The experiment was performed twice.
protease inhibitory activity (cysteine proteases): devoid of any detectable protease inhibitory activity
antibacterial effect, Staphylococci incl. multi-resistant MRSA [2]: +
growth inhibition of approximately 100 strain of MRSA [2]: strongly inhibited in their growth
MIC for S. aureus (S. aureus): approximately 16 mg/L
Polio plaques (poliovirus type 1): 2.6 × 10^5
protective capacity for lethal strept challenge (lethal strept challenge): strong protective capacity
solubility in DMSO (Solubility; DMSO): soluble in DMSO to high concentrations
solubility in water (Solubility; water): less soluble in water
antibacterial effect, α-haemolytic Streptococci [3]: −
MIC Candida albicans ATCC 10231 [4]: 32 µg/ml
MIC Aspergillus niger ATCC 16404 [5]: 64 µg/mL (≈ 101 µM)
antibacterial effect, Streptococcus: group G (Streptococcus: group G): +
antibacterial effect, S. pneumoniae (S. pneumoniae): +
antibacterial effect, Streptococcus: group C (Streptococcus: group C): +
antibacterial effect, CNS incl. resistant and multiresistant MRSE [6]: +
antibacterial effect, Streptococcus: group B (Streptococcus: group B): +
HSV-1 plaques (HSV-1 F): 1.0 × 10^3
MIC for GAS (GAS): approximately 16 mg/L

Z-Arg-Leu-Val-cinnamoylamide
Activity Anti-bacterial (bacteria): +

cyclo(Tyr-Arg-Leu-Val-Tyr-Arg-Leu-Val) (YRLVYRLV; cyclic; printed: Tyr-Arg-Leu-Val-Tyr-Arg-Leu-Val)
Activity Anti-bacterial (bacteria): +

CC(=O)NC(Cc1ccccc1)C(=O)NCC(NC(=O)C(CC(C)C)NC(=O)C(CCCNC(=N)N)NC(=O)OCc1ccccc1)C(C)C (stereo not shown) [[AcPhe^5]Cp1]
antibacterial effect, Streptococcus: group A (Streptococcus: group A): +
antibacterial effect, L. monocytogenes (L. monocytogenes): +
antibacterial effect, E. coli and other Gram-negatives [1]: −
antibacterial effect, Staphylococci incl. multi-resistant MRSA [2]: +
growth inhibition of approximately 100 strain of MRSA [2]: strongly inhibited in their growth
antibacterial effect, α-haemolytic Streptococci [3]: −
MIC Candida albicans ATCC 10231 [4]: 512 µg/mL (≈ 737 µM)
MIC Aspergillus niger ATCC 16404 [5]: 256 µg/mL (≈ 368 µM)
antibacterial effect, Streptococcus: group G (Streptococcus: group G): +
antibacterial effect, S. pneumoniae (S. pneumoniae): +
antibacterial effect, Streptococcus: group C (Streptococcus: group C): +
antibacterial effect, CNS incl. resistant and multiresistant MRSE [6]: +
antibacterial effect, Streptococcus: group B (Streptococcus: group B): +

cyclo([dPhg]RLV[dPhg]RLV)
Activity Anti-bacterial (bacteria): +

cyclo(FRLVF[Orn]LV)
Activity Anti-bacterial (bacteria): +

cyclo(Phe-Arg-Leu-Val-Phe-Arg-Leu-Val) (FRLVFRLV; cyclic; printed: Phe-Arg-Leu-Val-Phe-Arg-Leu-Val)
Activity Anti-bacterial (bacteria): +
